Experimental findings from US9670162B2, “Mitochondrial aldehyde dehyrogenase-2 modulators and methods of use thereof” (The Board of Trustees of the Leland Stanford Junior …, priority 2013, dated 2017) are described below.

Molecules are shown by their SMILES.

The nature of one series: LogD (pH 7.4). In kind it is physicochemical. On the procedure: (§1) In vitro ADMET of compounds of the present disclosure was carried out according to known methods in the art. Below are data for certain compounds of the present disclosure.
For the next series, the target named is CYP2C9 (Homo sapiens, UniProt P11712). Description: Cyp inhibition 2C9. In kind it is in vitro ADME. As for the experimental part: as §1
Chain of CYP2C9 (P11712 whole entry): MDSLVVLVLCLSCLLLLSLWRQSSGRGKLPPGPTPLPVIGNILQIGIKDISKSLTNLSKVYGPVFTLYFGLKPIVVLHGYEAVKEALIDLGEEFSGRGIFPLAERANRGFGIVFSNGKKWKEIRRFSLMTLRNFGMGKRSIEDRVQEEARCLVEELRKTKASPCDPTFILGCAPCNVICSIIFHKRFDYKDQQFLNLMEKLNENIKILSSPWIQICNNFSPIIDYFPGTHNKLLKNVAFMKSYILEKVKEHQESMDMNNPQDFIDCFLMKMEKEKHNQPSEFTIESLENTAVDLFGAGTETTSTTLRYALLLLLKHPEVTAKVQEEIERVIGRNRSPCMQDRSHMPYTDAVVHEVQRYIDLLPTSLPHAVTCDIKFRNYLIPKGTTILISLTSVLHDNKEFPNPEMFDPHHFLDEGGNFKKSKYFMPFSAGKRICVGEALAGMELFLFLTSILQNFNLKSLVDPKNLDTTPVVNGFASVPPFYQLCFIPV

`COc1ccc(CNC(=O)c2c(Cl)ccnc2OCC2CC2)cc1F` [Compound 161] gave a logD in the series “LogD (pH 7.4)” of 3. On CYP2C9, this compound yielded an inhibition at 10 µM of 5.7%.

Usually logD stands for the decadic logarithm of the distribution of all forms, ionised or not, between an organic phase and buffer at a given pH. A word on the inhibition: it is how much of the control response was suppressed. Low readings indicate a weak effect, high ones a strong effect.
